The record followed here is DBAASP.

Converted amounts (≈) assume the structure as drawn. “And” between values parts separate entries of the source, which are not always exact repeats. Equal values may be shown once.

Some test systems named below: Bacillus megaterium Bm11; Candida albicans; Candida parapsilosis; Candida tropicalis; Cryptococcus neoformans; Escherichia coli ML-35; Escherichia coli; Klebsiella pneumoniae; Pseudomonas aeruginosa; Streptococcus equinus; Escherichia coli UB1005; Bacillus cereus; Escherichia coli AS1.349; Lactococcus lactis.
Common to all, as to test: ≥ marks a high value that may be exact or a test limit, other limits are often not marked, values filed in µg/mL are converted to µM
The test system of assay [1] is Cryptococcus neoformans ATCC 52817.
The test system of assay [2] is Cryptococcus neoformans ATCC 90113.
Assay [3] relates to Escherichia coli ATCC 25922.
Assay [4] concerns Klebsiella pneumoniae ATCC 13883.
Assay [5] deals with Pseudomonas aeruginosa ATCC 10145.
The test system of assay [6] is Pseudomonas aeruginosa ATCC 27853.
The test system of assay [7] is Salmonella enterica serovar Typhimurium.
Assay [8] relates to Salmonella enterica subsp. enterica serovar Enteritidis.
Assay [9] has as its system Salmonella enterica subsp. enterica serovar Typhimurium ATCC 14028.
Assay [10] has as its system Serratia marcescens ATCC 8100.
For assay [11], the system named is Staphylococcus aureus ATCC 25923.
The test system of assay [12] is Staphylococcus aureus ATCC 29213.
Assay [13] relates to Staphylococcus epidermidis ATCC 12228.
Assay [14] relates to Bacillus subtilis KCCM 11495.
Assay [15] has as its system Escherichia coli KCCM 11569.
The subject of assay [16] is Burkholderia cepacia ATCC 25416.
For assay [17], the system named is Pseudomonas aeruginosa H374.
The test system of assay [18] is Pseudomonas aeruginosa H547.
Assay [19] concerns Pseudomonas aeruginosa H744.
For assay [20], the system named is Pseudomonas aeruginosa K799.
Assay [21] concerns Pseudomonas aeruginosa Z61.
The test system of assay [22] is Salmonella enterica subsp. enterica serovar Typhimurium ATCC 14028s.
The test system of assay [23] is Pseudomonas aeruginosa H1001.
Assay [24] deals with Bacillus subtilis ATCC 6633.
Assay [25] concerns Candida albicans ATCC 36232.
In assay [26] the test system is Escherichia coli KCTC 2433.
Assay [27] relates to Klebsiella pneumoniae ATCC 10031.
In assay [28] the test system is Micrococcus luteus ATCC 4698.
For assay [29], the system named is Proteus mirabilis ATCC 25933.
In assay [30] the test system is Pseudomonas aeruginosa ATCC 9027.
Assay [31] has as its system Shigella dysenteriae ATCC 9752.
The test system of assay [32] is Staphylococcus aureus AS1.72.
Assay [33] has as its system Staphylococcus aureus KCTC 3881.

By MIC is commonly meant the lowest concentration that inhibits growth of the organism.

`CC[C@H](C)[C@H](NC(=O)[C@H](CCCCN)NC(=O)[C@H](CCCN=C(N)N)NC(=O)[C@H](CCCN=C(N)N)NC(=O)[C@@H]1CCCN1C(=O)[C@H](CC(C)C)NC(=O)[C@H](CC(C)C)NC(=O)[C@@H](NC(=O)[C@H](CCCN=C(N)N)NC(=O)[C@H](CCSC)NC(=O)[C@H](CCCN=C(N)N)NC(=O)[C@H](CC(C)C)NC(=O)[C@H](Cc1ccccc1)NC(=O)[C@H](CO)NC(=O)[C@H](CCCCN)NC(=O)[C@H](C)NC(=O)[C@H](CC(C)C)NC(=O)[C@H](CCCN=C(N)N)NC(=O)CNC(=O)[C@H](Cc1ccccc1)NC(=O)[C@H](CCCN=C(N)N)NC(=O)[C@@H](N)CCCCN)[C@@H](C)CC)C(=O)N[C@@H](CC(C)C)C(=O)N[C@@H](CC(C)C)C(=O)N[C@@H](C)C(=O)N[C@@H](CO)C(=O)O` [KRFGRLAKSFLRMRILLPRRKILLAS]: the MIC against Bacillus megaterium Bm11 is 3.98 µM (≈ 12.5 µg/mL); with Candida albicans, above 31.8 µM; against Candida parapsilosis it was 31.8 µM (≈ 100 µg/mL); against Candida tropicalis, 31.8 µM (≈ 100 µg/mL); in assay [1], 3.98 µM and 1.91 µM; in assay [2] it was 3.98 µM and 1.91 µM. Moreover, the MIC against Cryptococcus neoformans is 1.91 µM and 3.98 µM; in [3] it was 1.1 µM (≈ 3.46 µg/mL); against Escherichia coli ML-35, 0.955 µM (≈ 3 µg/mL); with Escherichia coli, 1.27 µM (≈ 4 µg/mL); in assay [4], 0.78 µM (≈ 2.45 µg/mL); in the assay on Klebsiella pneumoniae, 1.91 µM and 0.9 µM. Moreover, the MIC in [5] is 1.27 µM (≈ 4 µg/mL); in assay [6], 3.98 µM (≈ 12.5 µg/mL); in the assay with Pseudomonas aeruginosa, 0.9 µM (≈ 2.83 µg/mL); in [7], 0.9 µM (≈ 2.83 µg/mL); in assay [8], 1.91 µM (≈ 6 µg/mL); in assay [9], 1.91 µM and 0.637 µM. Also, the minimum inhibitory concentration (MIC) in assay [10] was 3.98 µM (≈ 12.5 µg/mL); in assay [11] it was 7.96 µM (≈ 25 µg/mL); in assay [12] it was above 10.2 µM; in assay [13], 1.91 µM (≈ 6 µg/mL); against Streptococcus equinus, 7.96 µM (≈ 25 µg/mL).

Take `CC(C)C[C@H](NC(=O)CNC(=O)[C@H](Cc1cnc[nH]1)NC(=O)[C@H](Cc1cnc[nH]1)NC(=O)[C@H](CC(C)C)NC(=O)[C@H](CC(C)C)NC(=O)[C@H](C)NC(=O)[C@H](CC(N)=O)NC(=O)[C@H](CC(C)C)NC(=O)[C@@H](N)Cc1c[nH]c2ccccc12)C(=O)N[C@@H](CC(N)=O)C(=O)N[C@@H](CS)C(N)=O` [WLNALLHHGLNC]: the MIC in assay [14] and in assay [15] was at least 46 µM in each case.

Regarding `CC[C@H](C)[C@H](NC(=O)[C@H](CC(C)C)NC(=O)[C@@H]1CCCN1C(=O)[C@H](CCCCN)NC(=O)[C@H](C)NC(=O)[C@@H](NC(=O)[C@@H](NC(=O)[C@@H](NC(=O)[C@@H](NC(=O)[C@H](CCCCN)NC(=O)[C@H](CCCCN)NC(=O)[C@H](CC(C)C)NC(=O)[C@@H](NC(=O)[C@H](CO)NC(=O)[C@@H](NC(=O)[C@H](CC(C)C)NC(=O)[C@H](CCCCN)NC(=O)[C@H](CCCCN)NC(=O)[C@@H](NC(=O)[C@H](Cc1ccccc1)NC(=O)[C@H](CO)NC(=O)[C@H](CCCCN)NC(=O)[C@H](Cc1c[nH]c2ccccc12)NC(=O)[C@@H](N)CCCCN)[C@@H](C)CC)[C@@H](C)O)C(C)C)C(C)C)C(C)C)[C@@H](C)O)[C@@H](C)O)C(=O)N[C@@H](CO)C(=O)N[C@@H](CO)C(=O)O` [KWKSFIKKLTSVLKKVVTTAKPLISS], the minimum inhibitory concentration (MIC) amounted to 21.8 µM (≈ 64 µg/mL) in assay [16]; 0.682 µM (≈ 2 µg/mL) against Escherichia coli UB1005; 4 µM (≈ 11.7 µg/mL) in assay [6]; 2.73 µM (≈ 8 µg/mL) in assay [17]; 2.73 µM (≈ 8 µg/mL) in assay [18]; 1.36 µM (≈ 4 µg/mL) in [19]. In addition, the MIC was found to be 1.71 µM (≈ 5 µg/mL) in assay [20], 1.02 µM (≈ 3 µg/mL) in [21] and 1.02 µM (≈ 3 µg/mL) in assay [22].

Regarding `CC[C@H](C)[C@H](NC(=O)[C@H](CCCCN)NC(=O)[C@H](Cc1c[nH]c2ccccc12)NC(=O)[C@H](CCCN=C(N)N)NC(=O)[C@@H](N)CCCN=C(N)N)C(=O)N[C@H](C(=O)N[C@H](C(=O)N[C@H](C(=O)N[C@@H](CCCN=C(N)N)C(=O)N[C@@H](Cc1c[nH]c2ccccc12)C(=O)N[C@@H](CCCCN)C(=O)N[C@@H](CCCCN)C(N)=O)[C@@H](C)CC)C(C)C)C(C)C` [RRWKIVVIRWKK], the minimum inhibitory concentration (MIC) in [23] turned out to be 1.2 µM (≈ 2 µg/mL).

In the case of `CC(C)C[C@H](NC(=O)CN)C(=O)N[C@@H](Cc1ccccc1)C(=O)N[C@@H](CC(=O)O)C(=O)N[C@H](C(=O)N[C@H](C(=O)N[C@@H](CCCCN)C(=O)NCC(=O)N[C@H](C(=O)N[C@@H](CC(C)C)C(=O)N[C@@H](CCCCN)C(=O)NCC(=O)N[C@H](C(=O)NCC(=O)N[C@@H](CCCCN)C(=O)N[C@@H](CC(N)=O)C(=O)N[C@H](C(=O)N[C@@H](C)C(=O)NCC(=O)N[C@@H](CO)C(=O)N[C@@H](CC(C)C)C(=O)N[C@@H](CC(C)C)C(=O)N[C@@H](CCC(=O)O)C(=O)N[C@@H](CCC(N)=O)C(=O)N[C@@H](CC(C)C)C(=O)N[C@@H](CCCCN)C(=O)N[C@H]1CSSC[C@@H](C(=O)O)NC(=O)CNC(=O)CNC(=O)[C@H](CO)NC(=O)[C@H](CC(C)C)NC(=O)[C@H](CCCCN)NC1=O)C(C)C)C(C)C)C(C)C)C(C)C)C(C)C` [GLFDVVKGVLKGVGKNVAGSLLEQLKCKLSGGC], the MIC against Bacillus cereus was at least 37.5 µM; in assay [24], 15.1 µM (≈ 50 µg/mL); in assay [25] it was 30.1 µM (≈ 99.9 µg/mL); in the assay with Candida albicans it was 50 µM (≈ 166 µg/mL); against Escherichia coli AS1.349 it was at least 100 µM; in [26], 4.52 µM (≈ 15 µg/mL). For the same compound, the MIC was 4.52 µM (≈ 15 µg/mL) in assay [27]; at least 37.5 µM in the assay on Lactococcus lactis; 1.88 µM (≈ 6.25 µg/mL) in assay [28]; 30.1 µM (≈ 99.9 µg/mL) in assay [29]; above 30.1 µM in assay [30]; above 100 µM in the assay with Pseudomonas aeruginosa. The MIC in assay [31] was 18.1 µM (≈ 60 µg/mL); in assay [32], at least 37.5 µM; in assay [33] it was 9.04 µM (≈ 30 µg/mL); in assay [13] it was 18.1 µM (≈ 60 µg/mL).
